Several values for one entry are separate records, joined by “and”; a condition that tells them apart may be missing. Equal entries are not always repeated. Toxic doses and inconclusive results are not listed. How the source made its calls: active means survival T/C of 150% or more; inactive means T/C below 125% in these data. Non-standard residues stand in square brackets, D forms with d. Residues, ends and D or L forms follow the SMILES beside them. ξ: configuration not given here. *: point of attachment. Boc = CC(C)(C)OC(=O)*; ξP = O=C(O)C1CCCN1
Tested on: CD2F1 mice, L1210 leukemia ip, survival T/C
Test: NCI In Vivo Anticancer Drug Screen. Data for tumor model L1210 Leukemia (intraperitoneal) in CD2F1 (CDF1) mice
Conditions: higher = longer survival
Outline: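 Activity against a transplanted murine tumor was judged by comparing the compound group with a vehicle group. The outcome in the treated animals was divided by that in the controls.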

[1] = endpoint: mean survival time, dose: 25.0 mg/kg/injection, schedule: Q04DX003 (ip), vehicle: saline with Tween-80
[2] = endpoint: mean survival time, dose: 50.0 mg/kg/injection, schedule: Q04DX003 (ip), vehicle: saline with Tween-80
[3] = endpoint: mean survival time, dose: 100.0 mg/kg/injection, schedule: Q04DX003 (ip), vehicle: saline with Tween-80
[4] = endpoint: mean survival time, dose: 100.0 mg/kg/injection, schedule: Q01DX001 (ip), vehicle: saline
[5] = endpoint: mean survival time, dose: 100.0 mg/kg/injection, schedule: Q01DX009 (ip), vehicle: saline with Tween-80
[6] = endpoint: mean survival time, dose: 200.0 mg/kg/injection, schedule: Q01DX009 (ip), vehicle: saline with Tween-80
[7] = endpoint: mean survival time, dose: 400.0 mg/kg/injection, schedule: Q01DX009 (ip), vehicle: saline with Tween-80
[8] = endpoint: mean survival time, dose: 100.0 mg/kg/injection, schedule: Q01DX009 (ip), vehicle: saline
[9] = endpoint: mean survival time, dose: 100.0 mg/kg/injection, schedule: Q04DX003 (ip), vehicle: saline
[10] = endpoint: mean survival time, dose: 200.0 mg/kg/injection, schedule: Q01DX009 (ip), vehicle: saline
[11] = endpoint: mean survival time, dose: 200.0 mg/kg/injection, schedule: Q04DX003 (ip), vehicle: saline
[12] = endpoint: mean survival time, dose: 400.0 mg/kg/injection, schedule: Q01DX009 (ip), vehicle: saline
[13] = endpoint: mean survival time, dose: 400.0 mg/kg/injection, schedule: Q04DX003 (ip), vehicle: saline
[14] = endpoint: mean survival time, dose: 100.0 mg/kg/injection, schedule: Q04DX002 (ip), vehicle: saline with Tween-80
[15] = endpoint: mean survival time, dose: 200.0 mg/kg/injection, schedule: Q04DX002 (ip), vehicle: saline with Tween-80
[16] = endpoint: mean survival time, dose: 400.0 mg/kg/injection, schedule: Q04DX002 (ip), vehicle: saline with Tween-80

Measured: T/C

CCCCCCCP(=O)(CCCCCCC)CCCCCCC
inactive: endpoint: mean survival time, dose: 25.0 mg/kg/injection, schedule: Q01DX001 (ip), vehicle: saline with Tween-80 107 % of control | endpoint: mean survival time, dose: 50.0 mg/kg/injection, schedule: Q01DX001 (ip), vehicle: saline with Tween-80 96 % of control | endpoint: mean survival time, dose: 100.0 mg/kg/injection, schedule: Q01DX001 (ip), vehicle: saline with Tween-80 100 % of control

CCNCc1ccc(OC)cc1
inactive: [1] 106 % of control | [2] 104 % of control | [3] 93 % of control

CCCCSC(=N)N
inactive: endpoint: mean survival time, dose: 25.0 mg/kg/injection, schedule: Q01DX001 (ip), vehicle: saline 100 % of control | endpoint: mean survival time, dose: 50.0 mg/kg/injection, schedule: Q01DX001 (ip), vehicle: saline 105 % of control | [4] 113 % of control

Cc1cc2nc(-c3ccccc3)c(-c3ccccc3)nc2cc1C
inactive: [5] 92 % of control | [3] 94 % of control | [6] 92 % of control | endpoint: mean survival time, dose: 200.0 mg/kg/injection, schedule: Q04DX003 (ip), vehicle: saline with Tween-80 91 % of control | [7] 93 % of control | endpoint: mean survival time, dose: 400.0 mg/kg/injection, schedule: Q04DX003 (ip), vehicle: saline with Tween-80 95 % of control

CC1CN(C)CCN1C (stereo unspecified)
inactive: [8] 100 % of control | [9] 104 % of control | [10] 100 % of control | [11] 104 % of control | [12] 98 % of control | [13] 98 % of control

CCC(=O)c1ccc(Cc2ccc(C(=O)CC)cc2)cc1
inactive: endpoint: mean survival time, dose: 50.0 mg/kg/injection, schedule: Q01DX009 (ip), vehicle: saline 87 % of control | [8] 92 % of control | [10] 98 % of control | [12] 93 % of control

CCOC(=O)C#CC1CCCCC1
inactive: endpoint: mean survival time, dose: 50.0 mg/kg/injection, schedule: Q01DX009 (ip), vehicle: saline with Tween-80 98 % of control | [5] 98 % of control | [6] 102 % of control

Cc1ccc(S(=O)(=O)[N-]Cl)cc1.[Cl][Pt][Cl]
inactive: endpoint: mean survival time, dose: 4.7 mg/kg/injection, schedule: Q04DX003 (ip), vehicle: saline with Tween-80 95 % of control | endpoint: mean survival time, dose: 9.4 mg/kg/injection, schedule: Q04DX003 (ip), vehicle: saline with Tween-80 100 % of control | endpoint: mean survival time, dose: 18.75 mg/kg/injection, schedule: Q04DX003 (ip), vehicle: saline with Tween-80 100 % of control | endpoint: mean survival time, dose: 37.5 mg/kg/injection, schedule: Q04DX003 (ip), vehicle: saline with Tween-80 103 % of control | endpoint: mean survival time, dose: 75.0 mg/kg/injection, schedule: Q04DX003 (ip), vehicle: saline with Tween-80 103 % of control

COC(=O)CNC(=O)C1CCCN1C(=O)OC(C)(C)C (stereo unspecified) (Boc-[ξP]-Gly-OMe)
inactive: [9] 94 % of control | [11] 97 % of control | [13] 107 % of control

CC(C)(C)C(=O)C(Br)S(=O)(=O)C(Br)(Br)C(=O)C(C)(C)C (stereo unspecified)
inactive: [5] 95 % of control | [6] 97 % of control | [7] 95 % of control

O=c1c2cccc3cccc(c32)c2c3c(nn12)CCCC3
inactive: endpoint: mean survival time, dose: 12.5 mg/kg/injection, schedule: Q04DX002 (ip), vehicle: saline with Tween-80 102 % of control | endpoint: mean survival time, dose: 25.0 mg/kg/injection, schedule: Q04DX002 (ip), vehicle: saline with Tween-80 98 % of control | endpoint: mean survival time, dose: 50.0 mg/kg/injection, schedule: Q04DX002 (ip), vehicle: saline with Tween-80 94 % of control

C(CCSC1=NCCN1)CSC1=NCCN1
inactive: endpoint: mean survival time, dose: 25.0 mg/kg/injection, schedule: Q04DX002 (ip), vehicle: saline 96 % of control | endpoint: mean survival time, dose: 50.0 mg/kg/injection, schedule: Q04DX002 (ip), vehicle: saline 107 % of control | endpoint: mean survival time, dose: 100.0 mg/kg/injection, schedule: Q04DX002 (ip), vehicle: saline 90 % of control

COc1ccccc1C(O)(C(=O)OCCSC)c1ccccc1OC
inactive: [9] 93 % of control | [11] 94 % of control | [13] 88 % of control

CC(=O)OC1CCC2(C)C(CCC3C2CCC2(C)C(C(C)=O)CCC32)C1 (stereo unspecified)
inactive: endpoint: mean survival time, dose: 100.0 mg/kg/injection, schedule: Q04DX003 (sc), vehicle: steriod suspending solution 103 % of control | endpoint: mean survival time, dose: 200.0 mg/kg/injection, schedule: Q04DX003 (sc), vehicle: steriod suspending solution 97 % of control | endpoint: mean survival time, dose: 400.0 mg/kg/injection, schedule: Q04DX003 (sc), vehicle: steriod suspending solution 107 % of control

CC(C)NC(=O)Nc1ccccc1Cl
inactive: [14] 93 % of control | [15] 97 % of control | [16] 104 % of control

CS(C)=O
inactive: endpoint: mean survival time, dose: 46.87 mg/kg/injection, schedule: Q01DX009 (ip), vehicle: saline 95 % of control | endpoint: mean survival time, dose: 93.75 mg/kg/injection, schedule: Q01DX009 (ip), vehicle: saline 100 % of control and 103 % of control | endpoint: mean survival time, dose: 187.5 mg/kg/injection, schedule: Q01DX009 (ip), vehicle: saline 100 % of control and 101 % of control | endpoint: mean survival time, dose: 375.0 mg/kg/injection, schedule: Q01DX009 (ip), vehicle: saline 95 % of control and 100 % of control | endpoint: mean survival time, dose: 750.0 mg/kg/injection, schedule: Q01DX009 (ip), vehicle: saline 97 % of control and 100 % of control | endpoint: mean survival time, dose: 1500.0 mg/kg/injection, schedule: Q01DX009 (ip), vehicle: saline 100 % of control | endpoint: mean survival time, dose: 1.5 grams/kg/injection, schedule: Q01DX009 (ip), vehicle: saline 87 % of control and 100 % of control | endpoint: mean survival time, dose: 3.0 grams/kg/injection, schedule: Q01DX009 (ip), vehicle: saline 95 % of control | endpoint: mean survival time, dose: 6.0 grams/kg/injection, schedule: Q01DX009 (ip), vehicle: saline 89 % of control and 100 % of control

CC1(O)CC23CC(O)C4(O)C(CC(O)C4(C)C)C(C)(O)C2CCC1C3O (stereo unspecified)
inactive: endpoint: median survival time, dose: 0.06 mg/kg/injection, schedule: Q01DX009 (ip), vehicle: Klucel (hydroxypropylcellulose) (HPC) 97 % of control | endpoint: median survival time, dose: 0.12 mg/kg/injection, schedule: Q01DX009 (ip), vehicle: Klucel (hydroxypropylcellulose) (HPC) 96 % of control | endpoint: median survival time, dose: 0.25 mg/kg/injection, schedule: Q01DX009 (ip), vehicle: Klucel (hydroxypropylcellulose) (HPC) 102 % of control | endpoint: median survival time, dose: 0.5 mg/kg/injection, schedule: Q01DX009 (ip), vehicle: Klucel (hydroxypropylcellulose) (HPC) 97 % of control

N#CC(C#N)=C1Cc2ccccc2C1
inactive: endpoint: mean survival time, dose: 12.5 mg/kg/injection, schedule: Q04DX003 (ip), vehicle: saline with Tween-80 93 % of control | [1] 100 % of control | [2] 94 % of control

Cc1ccc(S(=O)(=O)n2nc(C3OC(CO)C(O)C3O)c(O)c2C(N)=O)cc1 (stereo unspecified)
inactive: endpoint: median survival time, dose: 44.6 mg/kg/injection, schedule: Q01DX005 (ip), vehicle: saline 120 % of control | endpoint: median survival time, dose: 89.3 mg/kg/injection, schedule: Q01DX005 (ip), vehicle: saline 120 % of control

O=C(OCc1ccccc1)OC1C2COC(O2)C(OC(=O)OCc2ccccc2)C1O (stereo unspecified)
inactive: [5] 95 % of control | [6] 95 % of control | [7] 89 % of control

COc1ccc(/C=C(\C#N)C(=O)NCCc2ccc(OC)c(OC)c2)cc1OC
inactive: [14] 95 % of control | [15] 95 % of control | [16] 95 % of control

Nn1cnc2ccccc2c1=O
inactive: [4] 101 % of control | endpoint: mean survival time, dose: 200.0 mg/kg/injection, schedule: Q01DX001 (ip), vehicle: saline 102 % of control | endpoint: mean survival time, dose: 400.0 mg/kg/injection, schedule: Q01DX001 (ip), vehicle: saline 102 % of control

Source: PubChem BioAssay AID256 (DTP/NCI, 2004)
